How the values were obtained:
Format in all cases: in vivo
Spodoptera litura = assay: Pesticidal test against Spodoptera litura (cabbage leaf dip); details: foliar, 144 h, concentration 1 ppm, 2-stage larvae, examined after 6 days, 25° C., read-out: pesticidal rate
In short: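 Cabbage leaf pieces dipped 30 seconds in compound solution at a predetermined concentration and air-dried, then offered to second-stage larvae, five per group in two replicates. Held at 25° C. Living and dead larvae counted after 6 days.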

Plutella xylostella = assay: Pesticidal test against Plutella xylostella (cabbage leaf dip); details: foliar, 144 h, concentration 1 ppm, 2-stage larvae, examined after 6 days, 25° C., read-out: pesticidal rate
In short: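 Cabbage leaf pieces dipped 30 s in test solution at a predetermined concentration, air-dried, then offered to 2nd-instar larvae, five per group in duplicate. Held at 25° C; living and dead larvae counted after 6 days.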

Adoxophyes honmai = assay: Pesticidal test against Adoxophyes honmai (artificial feed dip); details: 144 h, 2-stage larvae, examined after 6 days, 25° C., read-out: pesticidal rate; for pest or weed control at 1 ppm: concentration 1 ppm; for pest or weed control at 10 ppm: concentration 10 ppm
Method: (§1) Pesticidal Test against Adoxophyes honmai A thinly sliced artificial feed was immersed for 30 seconds in a chemical solution in which a test compound had been prepared at a predetermined concentration, and air-dried, and then put into a 7 cm polyethylene cup having a filter paper laid on the bottom thereof, and 2-stage larvae of Adoxophyes honmai were released. They were left to stand in a thermostatic chamber at 25° C., and the numbers of the living pests and the dead pests were examined after 6 days. The test was carried out with five larvae per group in two replicates. Further, the above compound (A) was used as a comparative compound.

Choristoneura magnanima = assay: Pesticidal test against Choristoneura magnanima (artificial feed dip); details: 144 h, 2-stage larvae, examined after 6 days, 25° C., read-out: pesticidal rate; for pest or weed control at 1 ppm: concentration 1 ppm
Method: as §1, with “Choristoneura magnanima” for “Adoxophyes honmai”

Helicoverpa armigera = assay: Pesticidal test against Helicoverpa armigera (cabbage leaf disk dip); details: foliar, 72 h, concentration 1 ppm, 2-stage larvae, examined after 3 days, 25° C., read-out: pesticidal rate
Method: as §1, with “Helicoverpa armigera” for “Adoxophyes honmai”, “cabbage leaf disk” for “thinly sliced artificial feed”, “air-dried. The leaf disk was” for “air-dried, and then”, “6-hole plastic” for “7 cm polyethylene”, “released with one insect being released per hole.” for “released.”, “3” for “6”

Laodelphax striatellus = assay: Pesticidal test against Laodelphax striatellus (rice seedling spray); details: 144 h, concentration 100 ppm, 3-stage larvae, examined after 6 days, 25° C., read-out: pesticidal rate
In short: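 Rice seedlings sprayed with 2.5 ml acetone solution of compound at a predetermined concentration, air-dried, then infested with third-stage Laodelphax striatellus larvae in capped water-containing tubes at 25 °C. Living and dead insects counted after 6 days; ten larvae per group, two replicates.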

O=C(Nc1c(I)cc(C(F)(C(F)(F)F)C(F)(F)C(F)(F)F)cc1I)c1cccc(NC(=O)c2c(F)cccc2F)c1 (stereo not drawn) [6-80]
≥ 70%: pest or weed control at 1 ppm (Spodoptera litura) | pest or weed control at 1 ppm (Plutella xylostella) | pest or weed control at 1 ppm (Adoxophyes honmai) | pest or weed control at 1 ppm (Choristoneura magnanima) | pest or weed control at 1 ppm (Helicoverpa armigera) | pest or weed control at 100 ppm (Laodelphax striatellus)

O=C(Nc1c(I)cc(C(F)(C(F)(F)F)C(F)(F)C(F)(F)F)cc1I)c1cccc(NC(=O)c2cccnc2Cl)c1 (stereo not drawn) [6-90]
≥ 70%: pest or weed control at 1 ppm (Spodoptera litura) | pest or weed control at 1 ppm (Plutella xylostella) | pest or weed control at 1 ppm (Adoxophyes honmai) | pest or weed control at 1 ppm (Choristoneura magnanima) | pest or weed control at 1 ppm (Helicoverpa armigera) | pest or weed control at 100 ppm (Laodelphax striatellus)

O=C(Nc1cccc(C(=O)Nc2c(Br)cc(C(F)(C(F)(F)F)C(F)(F)F)cc2C(F)(F)F)c1)c1ccc(F)cc1 [6-271]
≥ 70%: pest or weed control at 1 ppm (Spodoptera litura) | pest or weed control at 1 ppm (Plutella xylostella) | pest or weed control at 10 ppm (Adoxophyes honmai) | pest or weed control at 1 ppm (Choristoneura magnanima) | pest or weed control at 1 ppm (Helicoverpa armigera) | pest or weed control at 100 ppm (Laodelphax striatellus)

O=C(Nc1c(I)cc(C(F)(C(F)(F)F)C(F)(F)F)cc1C(F)(F)F)c1cccc(NC(=O)c2c(F)cccc2F)c1 [6-446]
≥ 70%: pest or weed control at 1 ppm (Spodoptera litura) | pest or weed control at 1 ppm (Plutella xylostella) | pest or weed control at 1 ppm (Adoxophyes honmai) | pest or weed control at 10 ppm (Choristoneura magnanima; concentration 10 ppm) | pest or weed control at 1 ppm (Helicoverpa armigera) | pest or weed control at 100 ppm (Laodelphax striatellus)

O=C(Nc1cccc(C(=O)Nc2c(Br)cc(C(F)(C(F)(F)F)C(F)(F)F)cc2Br)c1F)c1ccccc1 [6-1104]
≥ 70%: pest or weed control at 1 ppm (Spodoptera litura) | pest or weed control at 1 ppm (Plutella xylostella) | pest or weed control at 10 ppm (Adoxophyes honmai) | pest or weed control at 1 ppm (Choristoneura magnanima) | pest or weed control at 1 ppm (Helicoverpa armigera) | pest or weed control at 100 ppm (Laodelphax striatellus)

O=C(Nc1cccc(C(=O)Nc2c(I)cc(C(F)(C(F)(F)F)C(F)(F)F)cc2I)c1F)c1ccc(F)cc1 [6-1263]
≥ 70%: pest or weed control at 1 ppm (Spodoptera litura) | pest or weed control at 1 ppm (Plutella xylostella) | pest or weed control at 1 ppm (Adoxophyes honmai) | pest or weed control at 1 ppm (Choristoneura magnanima) | pest or weed control at 1 ppm (Helicoverpa armigera) | pest or weed control at 100 ppm (Laodelphax striatellus)

O=C(Nc1cccc(C(=O)Nc2c(Br)cc(C(F)(C(F)(F)F)C(F)(F)F)cc2C(F)(F)F)c1F)c1ccccc1 [6-1574]
≥ 70%: pest or weed control at 1 ppm (Spodoptera litura) | pest or weed control at 1 ppm (Plutella xylostella) | pest or weed control at 1 ppm (Adoxophyes honmai) | pest or weed control at 1 ppm (Choristoneura magnanima) | pest or weed control at 1 ppm (Helicoverpa armigera) | pest or weed control at 100 ppm (Laodelphax striatellus)

O=C(Nc1cccc(C(=O)Nc2c(Br)cc(C(F)(C(F)(F)F)C(F)(F)C(F)(F)F)cc2C(F)(F)F)c1F)c1cccc(F)c1 (stereo not drawn) [6-1654]
≥ 70%: pest or weed control at 1 ppm (Spodoptera litura) | pest or weed control at 1 ppm (Plutella xylostella) | pest or weed control at 1 ppm (Adoxophyes honmai) | pest or weed control at 1 ppm (Choristoneura magnanima) | pest or weed control at 1 ppm (Helicoverpa armigera) | pest or weed control at 100 ppm (Laodelphax striatellus)

O=C(Nc1cccc(C(=O)Nc2c(Br)cc(C(F)(C(F)(F)F)C(F)(F)C(F)(F)F)cc2C(F)(F)F)c1F)c1ccc(F)cc1 (stereo not drawn) [6-1655]
≥ 70%: pest or weed control at 1 ppm (Spodoptera litura) | pest or weed control at 1 ppm (Plutella xylostella) | pest or weed control at 1 ppm (Adoxophyes honmai) | pest or weed control at 1 ppm (Choristoneura magnanima) | pest or weed control at 1 ppm (Helicoverpa armigera) | pest or weed control at 100 ppm (Laodelphax striatellus)

O=C(Nc1c(Br)cc(C(F)(C(F)(F)F)C(F)(F)C(F)(F)F)cc1C(F)(F)F)c1cccc(NC(=O)c2c(F)cccc2F)c1F (stereo not drawn) [6-1674]
≥ 70%: pest or weed control at 1 ppm (Spodoptera litura) | pest or weed control at 1 ppm (Plutella xylostella) | pest or weed control at 1 ppm (Adoxophyes honmai) | pest or weed control at 1 ppm (Choristoneura magnanima) | pest or weed control at 1 ppm (Helicoverpa armigera) | pest or weed control at 100 ppm (Laodelphax striatellus)

CN(C(=O)c1ccc(F)cc1)c1cccc(C(=O)Nc2c(I)cc(C(F)(C(F)(F)F)C(F)(F)F)cc2I)c1F [7-1263]
≥ 70%: pest or weed control at 1 ppm (Spodoptera litura) | pest or weed control at 1 ppm (Plutella xylostella) | pest or weed control at 10 ppm (Adoxophyes honmai) | pest or weed control at 1 ppm (Choristoneura magnanima) | pest or weed control at 1 ppm (Helicoverpa armigera) | pest or weed control at 100 ppm (Laodelphax striatellus)

CN(C(=O)c1cc(C#N)cc(C#N)c1)c1cccc(C(=O)Nc2c(Br)cc(C(F)(C(F)(F)F)C(F)(F)F)cc2C(F)(F)F)c1F [7-1605]
≥ 70%: pest or weed control at 1 ppm (Spodoptera litura) | pest or weed control at 1 ppm (Plutella xylostella) | pest or weed control at 1 ppm (Adoxophyes honmai) | pest or weed control at 1 ppm (Choristoneura magnanima) | pest or weed control at 1 ppm (Helicoverpa armigera) | pest or weed control at 100 ppm (Laodelphax striatellus)
